Where two headings read alike, the source gives them in different places.
What was measured:
[1] = test system: HCV replicon D168V variant in Huh7 cells; assay: microbe, parasite or virus in culture; type: cell-based, Hepatitis C virus; details: for EC50: Hepatitis C virus; for Replicon EC50 (Fold change) D168V: Table 4, relative to WT replicon
Procedure: (§1) Mutations (R155K, A516T, D168A and D168V) were constructed by site-directed mutagenesis using a Con1 (genotype 1b) luciferase reporter replicon containing the H77 (genotype 1a) NS3 sequence.
Replicon RNA of each protease variant was introduced into Huh7 cells by electroporation. Replication was then assessed in the presence of increasing concentrations of protease inhibitors by measuring luciferase activity (relative light units) 96 h after electroporation. […]

[2] = test system: HCV replicon A156T variant in Huh7 cells; assay: microbe, parasite or virus in culture; type: cell-based, Hepatitis C virus; details: for Replicon EC50 (Fold change) A156T: Table 4, relative to WT replicon
Procedure: as §1
(§2) Replicon RNA of each protease variant was introduced into Huh7 cells by electroporation. Replication was then assessed in the presence of increasing concentrations of protease inhibitors by measuring luciferase activity (relative light units) 96 h after electroporation.
(§3) Mutations (R155K, D168A and A156T) were constructed by site-directed mutagenesis using a Con1 (genotype 1b) luciferase reporter replicon containing the H77 (genotype 1a) NS3 sequence.^6 Replicon RNA of each protease variant was introduced into Huh7 cells by electroporation. Replication was then assessed in the presence of increasing concentrations of protease inhibitors by measuring luciferase activity (relative light units) 96 h after electroporation.

[3] = test system: HCV replicon D168A variant in Huh7 cells; assay: microbe, parasite or virus in culture; type: cell-based, Hepatitis C virus; details: for EC50: Hepatitis C virus; for Replicon EC50 (Fold change) D168A: Table 4, relative to WT replicon
Procedure: as §1, §2, §3

[4] = test system: HCV replicon R155K variant in Huh7 cells; assay: microbe, parasite or virus in culture; type: cell-based, Hepatitis C virus; details: for EC50: Hepatitis C virus; for Replicon EC50 (Fold change) R155K: Table 4, relative to WT replicon
Procedure: as §1, §2, §3

[5] = test system: wild-type HCV replicon in Huh7 cells; assay: Cell-based drug susceptibility (replicon) assay, wild-type; details: Hepatitis C virus, read-out: Replicon EC50 (nM) WT
Procedure: as §1, §2, §3

[6] = target: GT1a D168A NS3/4A protease; type: biochemical, Hepatitis C virus; details: Table 3; Ki D168A relative to GT1a WT
Procedure: (§4) For each assay, 2 nM of NS3/4A protease (GT1, D168A and GT3) was pre-incubated at room temperature for 1 h with increasing concentration of inhibitors in assay buffer [50 mM Tris, 5% glycerol, 10 mM DTT, 0.6 mM LDAO, and 4% dimethyl sulfoxide]. Inhibition assays were performed in nonbinding surface 96-well black half-area plates (Corning) in a reaction volume of 60 μt. […] Three independent data sets were collected for each inhibitor with each protease construct.
as §4, with “(GT1a” for “(GT1, D168A”, “D168A)” for “GT3)”, “(50” for “[50”, “sulfoxide, pH 7.5).” for “sulfoxide].”, “non-binding” for “nonbinding”, “μL.” for “μt.”
(§5) For each assay, 2 nM of NS3/4A protease (GT1a, R155K and D168A) was pre-incubated at room temperature for 1 h with increasing concentration of inhibitors in assay buffer (50 mM Tris, 5% glycerol, 10 mM DTT, 0.6 mM LDAO, and 4% dimethyl sulfoxide, pH 7.5). Inhibition assays were performed in non-binding surface 96-well black half-area plates (Corning) in a reaction volume of 60 μL. […] Three independent data sets were collected for each inhibitor with each protease construct. […] Gibbs free energy of binding was calculated using the following equation: ΔG=RTlnKi

[7] = target: T1, GT1a D168A NS3/4A protease (UniProt P27958, C1185S/D1194A, species not given); type: biochemical, Hepatitis C virus; details: read-out: Ki (nM) GT1a D168A NS3/4A Protease
T1 construct: Ki (nM) GT1a D168A NS3/4A Protease
Procedure: as §4
(§6) For each assay, 2 nM of NS3/4A protease (GT1a and D168A) was pre-incubated at room temperature for 1 h with increasing concentration of inhibitors in assay buffer (50 mM Tris, 5% glycerol, 10 mM DTT, 0.6 mM LDAO, and 4% dimethyl sulfoxide, pH 7.5). Inhibition assays were performed in non-binding surface 96-well black half-area plates (Corning) in a reaction volume of 60 μL. […] Three independent data sets were collected for each inhibitor with each protease construct.
as §5

[8] = target: T2, wild-type GT1a NS3/4A protease (UniProt P27958, C1185S, species not given); type: biochemical, Hepatitis C virus; details: read-out: Ki (nM) GT1a WT NS3/4A Protease
T2 construct: Ki (nM) GT1a WT NS3/4A Protease
Procedure: as §4, §6, §5

[9] = Huh-7, read-out: Replicon EC50 (nM) D168V, Table 4
[10] = Huh-7, read-out: Replicon EC50 (nM) D168A, Table 4
[11] = Huh-7, read-out: Replicon EC50 (nM) R155K, Table 4
[12] = Huh-7, 96 h, read-out: Replicon EC50 (nM) D168V, Table 2, Huh7 cells, luciferase 96 h
[13] = Hepatitis C virus, Huh-7, 96 h, read-out: Replicon EC50 (nM) A156T, Table 2, Huh7 cells, luciferase 96 h
[14] = Hepatitis C virus, Huh-7, read-out: Replicon EC50 (nM) A156T, Table 4
[15] = Huh-7, 96 h, read-out: Replicon EC50 (nM) D168A, Table 2, Huh7 cells, luciferase 96 h
[16] = Huh-7, 96 h, read-out: Replicon EC50 (nM) R155K, Table 2, Huh7 cells, luciferase 96 h
[17] = Huh-7, 96 h, Table 2, Huh7 cells, luciferase 96 h

With `C=C[C@@H]1C[C@]1(NC(=O)[C@@H]1C[C@@H]2CN1C(=O)[C@H](C(C)(C)C)NC(=O)O[C@@H]1C[C@H]1CCCCCc1nc3ccc(OC)cc3nc1O2)C(=O)NS(=O)(=O)C1CC1` [Compound 1, grazoprevir, reference compound] the EC50 [1, 9] was 5.41 nM, the EC50 ([1]; Huh-7, read-out: Replicon EC50 (nM) D168V, Table 9) was 5.3 nM and the EC50 ([2]; Hepatitis C virus, Huh-7, read-out: Replicon EC50 (nM) A156T, Table 9) was 200 nM. The EC50 ([2]; read-out: Replicon EC50 (nM) A156T, Table 2, Huh7 cells, luciferase 96 h) was 238 nM, the EC50 [3, 10] was 9.69 nM and the EC50 ([3]; Huh-7, read-out: Replicon EC50 (nM) D168A, Table 9) was 11 nM. The EC50 [4, 11] was 1.89 nM, the EC50 ([4]; Huh-7, read-out: Replicon EC50 (nM) R155K, Table 9) was 1.9 nM and the EC50 ([5]; Huh-7, Table 4) was 0.14 nM. For the same molecule, the EC50 ([5]; Huh-7, Table 9) was 0.12 nM.

For `CCc1nc2ccccc2nc1O[C@@H]1C[C@H]2C(=O)N[C@]3(C(=O)NS(=O)(=O)C4CC4)C[C@H]3/C=C\CCCCC[C@H](NC(=O)OC3CCCC3)C(=O)N2C1` [Compound 22g, Cyclopentyl ((2R,6S,13aS,14aR,16aS,Z)-14a-((cyclopropylsulfonyl)carbamoyl)-2-((3-ethylquinoxalin-2-yl)oxy)-5,16-dioxo-1,2,3,5,6,7,8,9,10,11,13a,14,14a,15,16,16a-hexadecahydrocyclopropa[e]pyrrolo[1,2-a][1,4]diazacyclopentadecin-6-yl)carbamate], the EC50 [1, 12] was 19.3 nM, the EC50 [1, 9] was 19.3 nM and the “Replicon EC50 (Fold change) D168V” value [1] was “(80) fold”. The “Ki (Fold change) GT1a D168A NS3/4A Protease” value [6] was “(54) fold”, the Ki ([7]; Table 1) was 107 nM and the Ki ([7]; Table 3) was 107 ± 7 nM. It also gave a Ki ([8]; Table 1) of 1.99 nM, a Ki ([8]; Table 3) of 1.99 nM and an EC50 [2, 13] of 24.6 nM. The EC50 [2, 14] was 24.6 nM, the “Replicon EC50 (Fold change) A156T” value [2] was “(103) fold” and the EC50 [3, 15] was 7.5 nM. For the same molecule, the EC50 [3, 10] was 7.5 nM, the “Replicon EC50 (Fold change) D168A” value [3] was “(31) fold” and the EC50 [4, 16] was 4.28 nM. The EC50 [4, 11] was 4.28 nM, the “Replicon EC50 (Fold change) R155K” value [4] was “(18) fold” and the EC50 [5, 17] was 0.24 nM. The EC50 ([5]; Huh-7, Table 4) was 0.24 nM.

For `COc1ccc2nc(C(C)C)c(O[C@@H]3C[C@H]4C(=O)N[C@]5(C(=O)NS(=O)(=O)C6CC6)C[C@H]5/C=C\CCCCC[C@H](NC(=O)OC5CCCC5)C(=O)N4C3)nc2c1` [Compound 22e, Cyclopentyl ((2R,6S,13aS,14aR,16aS,Z)-14a-((cyclopropylsulfonyl)carbamoyl)-2-((3-isopropyl-7-methoxyquinoxalin-2-yl)oxy)-5,16-dioxo-1,2,3,5,6,7,8,9,10,11,13a,14,14a,15,16,16a-hexadecahydrocyclopropa[e]pyrrolo[1,2-a][1,4]diazacyclopentadecin-6-yl)carbamate], the EC50 [1, 12] was 30.1 nM, the EC50 [1, 9] was 30.1 nM and the “Replicon EC50 (Fold change) D168V” value [1] was “(63) fold”. For the same molecule, the “Ki (Fold change) GT1a D168A NS3/4A Protease” value [6] was “(112) fold”, the Ki ([7]; Table 1) was 161 nM and the Ki ([7]; Table 3) was 161 ± 11 nM. For the same molecule, the Ki ([8]; Table 1) was 1.44 nM, the Ki ([8]; Table 3) was 1.44 nM and the EC50 [2, 13] was 32.1 nM. The EC50 [2, 14] was 32.1 nM, the “Replicon EC50 (Fold change) A156T” value [2] was “(67) fold” and the EC50 [3, 15] was 7.96 nM. For the same molecule, the EC50 [3, 10] was 7.96 nM, the “Replicon EC50 (Fold change) D168A” value [3] was “(17) fold” and the EC50 [4, 16] was 7.63 nM. The EC50 [4, 11] was 7.63 nM, the “Replicon EC50 (Fold change) R155K” value [4] was “(16) fold” and the EC50 [5, 17] was 0.48 nM. It also gave an EC50 ([5]; Huh-7, Table 4) of 0.48 nM.
